Results published in patent US6620828B2, “Thiazole compounds and pharmaceutical compositions for inhibiting protein kinases and methods for their use” (Agouron Pharmaceuticals, Inc., priority 1999, dated 2003).

What was measured:
[1] = tested on: human umbilical vein endothelial cells (HUVEC); assay: HUVEC proliferation assay; assay type: cell-based; conditions: Homo sapiens, HUVEC, Table 3
Outline: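 Exponentially growing HUVEC were serum-starved 24 h (F12K + 1% FBS), pre-treated 1 h with compound (0.1% DMSO final), then stimulated with 6 ng/ml VEGF. Proliferation was read 72 h later by MTT reduction (A595). IC50 came from seven 0.5-log concentrations in triplicate; screens gave % inhibition relative to VEGF-only and starved wells.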

[2] = target: T1, unphosphorylated VEGF-R2Δ50 (FLVK) (Homo sapiens, UniProt P35968, DEL940-989/E990V); assay: VEGF-R2 coupled spectrophotometric assay, unphosphorylated enzyme (FLVK); assay type: biochemical; conditions: Table 3; for Ki: some entries 'Slow binder'; for inhibition at 0.05 µM: at 50 nM
T1 construct: VEGF-R2Δ50 contains residues 806-939 and 990-1171; made in house; host or cells: baculovirus/insect cells
T1 sequence (P35968 with tags, fused parts or gaps DEL940-989/E990V limits assumed): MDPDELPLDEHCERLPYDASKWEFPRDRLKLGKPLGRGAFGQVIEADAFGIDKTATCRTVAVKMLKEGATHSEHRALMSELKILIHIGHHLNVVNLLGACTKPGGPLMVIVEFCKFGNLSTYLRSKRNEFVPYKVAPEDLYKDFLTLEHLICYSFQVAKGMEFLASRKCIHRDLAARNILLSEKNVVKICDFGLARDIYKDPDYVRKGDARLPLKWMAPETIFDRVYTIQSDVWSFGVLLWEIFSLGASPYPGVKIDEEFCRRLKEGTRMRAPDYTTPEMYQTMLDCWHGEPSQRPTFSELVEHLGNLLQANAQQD
From the text: VEGF-R2 Construct for Assay: This construct determines the ability of a test compound to inhibit tyrosine kinase activity. A construct (VEGF-R2Δ50) of the cytosolic domain of human vascular endothelial growth factor receptor 2 (VEGF-R2) lacking the 50 central residues of the 68 residues of the kinase insert domain was expressed in a baculovirus/insect cell system. Of the 1356 residues of full-length VEGF-R2, VEGF-R2Δ50 contains residues 806-939 and 990-1171, and also one point mutation (E990V) within the kinase insert domain relative to wild-type VEGF-R2. Autophosphorylation of the purified construct was performed by incubation of the enzyme at a concentration of 4 μM in the presence of 3 mM ATP and 40 mM MgCl2 in 100 mM Hepes, pH 7.5, containing 5% glycerol and 5 mM DTT, at 4° C. for 2 h. […] See Parast et al., Biochemistry, 37, 16788-16801 (1998).
The production of ADP from ATP that accompanies phosphoryl transfer was coupled to oxidation of NADH using phosphoenolpyruvate (PEP) and a system having pyruvate kinase (PK) and lactic dehydrogenase (LDH). The oxidation of NADH was monitored by following the decrease of absorbance at 340 nm (e340=6.22 cm^−1 mM^−1) using a Beckman DU 650 spectrophotometer. Assay conditions for phosphorylated VEGF-R2Δ50 (indicated as FLVK-P in the tables below) were the following: 1 mM PEP; 250 μM NADH; 50 units of LDH/mL; 20 units of PK/mL; 5 mM DTT; 5.1 mM poly(E4Y1); 1 mM ATP; and 25 mM MgCl2 in 200 mM Hepes, pH 7.5. Assay conditions for unphosphorylated VEGF-R2Δ50 (indicated as FLVK in the tables) were the following: 1 mM PEP; 250 μM NADH; 50 units of LDH/mL; 20 units of PK/mL; 5 mM DTT; 20 mM poly(E4Y1); 3 mM ATP; and 60 mM MgCl2 and 2 mM MnCl2 in 200 mM Hepes, pH 7.5. Assays were initiated with 5 to 40 nM of enzyme. Ki values were determined by measuring enzyme activity in the presence of varying concentrations of test compounds. The data were analyzed using Enzyme Kinetic and Kaleidagraph software.

| Ki [2] | inhibition at 0.05 µM [2] | Compound | IC50 [1] |
| --- | --- | --- | --- |
| 0.61 nM |  | COc1cc(Nc2nc(N)c(-c3nc(-c4cc(NC(=O)OC(C)(C)C)ccc4C)no3)s2)cc(OC)c1OC [B(6), 3-(2-methyl-5-(tert-butyloxycarboxyamino)-phenyl)-5-[2-[(3,4,5 trimethoxyphenyl)-amino]-4-amino-5-thiazolyl]-1,2,4-oxadiazole] | 56 nM |
| 1.3 nM |  | COc1cc(Nc2nc(N)c(-c3nc(-c4cc(NC(=O)OC(C)(C)C)c(F)cc4F)no3)s2)cc(OC)c1OC [B(13), (5-{5-[4-Amino-2-(3,4,5-trimethoxy-phenylamino)-thiazol-5-yl]-[1,2,4]oxadiazol-3-yl}-2,4-difluoro-phenyl)-carbamic acid tert-butyl ester] | 300 nM |
| 1.7 nM |  | COc1cc(Nc2nc(N)c(-c3nc(-c4cc(NC(=O)OC(C)(C)C)c(Cl)cc4Cl)no3)s2)cc(OC)c1OC [B(15), (5-{5-[4-Amino-2-(3,4,5-trimethoxy-phenylamino)-thiazol-5-yl]-[1,2,4]oxadiazol-3-yl}-2,4-dichloro-phenyl)-carbamic acid tert-butyl ester] | 100 nM |
|  | 54% | COc1cccc(C(=O)Nc2ccc(C)c(-c3noc(-c4sc(NC(C)C)nc4N)n3)c2)c1 [B(22), N-{3-[5-(4-Amino-2-isopropylamino-thiazol-5-yl)-[1,2,4]oxadiazol-3-yl]-4-methyl-phenyl}-3-methoxy-benzamide] | > 1000 nM |
|  | 36% | COc1cc(Nc2nc(N)c(-c3nc(-c4cccc(-c5nc(C)n[nH]5)c4)no3)s2)cc(OC)c1OC [B(37)] | > 1000 nM |
|  | 13% | COc1cc(Nc2nc(N)c(-c3nc(-c4cccc(-c5nc(C(C)C)n[nH]5)c4)no3)s2)cc(OC)c1OC [B(38), 5-{3-[3-(5-isopropyl-2H-[1,2,4]triazol-3-yl)-phenyl]-[1,2,4]oxadiazol-5-yl}-N2-(3.4,5-trimethoxy-phenyl)-thiazole-2,4-diamine] | > 700 nM |
| 6.3 nM |  | COc1cc(Nc2nc(N)c(-c3nc(-c4cccc(-c5nc(CC(C)C)n[nH]5)c4)no3)s2)cc(OC)c1OC [B(39)] | > 100 nM |
| 33 nM |  | COc1cc(Nc2nc(N)c(-c3nc(-c4cc(N)ccc4C)no3)s2)cc(OC)c1OC [C(6), 3-(3-amino-6-methyl-phenyl)-5-[2-[(3,4,5 trimethoxyphenyl)-amino]-4-amino-5-thiazolyl]-1,2,4-oxadiazole] | 300 nM |
| 17 nM |  | COc1cc(Nc2nc(N)c(-c3nc(-c4cc(N)ccc4Cl)no3)s2)cc(OC)c1OC [C(7), 5-[3-(5-Amino-2-chloro-phenyl)-[1,2,4]oxadiazol-5-yl]-N2-(3,4,5-trimethoxy-phenyl)-thiazole-2,4-diamine] | 300 nM |
|  | 21% | COc1cc(Nc2nc(N)c(-c3nc(-c4cc(N)c(F)cc4F)no3)s2)cc(OC)c1OC [C(8), 5-[3-(5-Amino-2,4,-difluoro-phenyl)-[1,2,4]oxadiazol-5-yl]-N2-(3,4,5-trimethoxy-phenyl)-thiazole-2,4-diamine] | > 700 nM |
| 8 nM |  | COc1cc(Nc2nc(N)c(-c3nc(-c4cc(N)c(F)cc4Cl)no3)s2)cc(OC)c1OC [C(9), 5-[3-(5-Amino-2-chloro-4-fluoro-phenyl)-[1,2,4]oxadiazol-5-yl]-N-(3,4,5-trimethoxy-phenyl)-thiazole-2,4-diamine] | 300 nM |
|  | 20% | C#CCCCC(=O)Nc1cccc(-c2noc(-c3sc(Nc4cc(OC)c(OC)c(OC)c4)nc3N)n2)c1 [D(62), Hex-5-ynoic acid (3-{5-[4-amino-2-(3,4,5-trimethoxy-phenylamino)-thiazol-5-yl]-[1,2,4]oxadiazol-3-yl}-phenyl)-amide] | 500 nM |
|  | 51% | Nc1nc(Nc2cccc(-c3nn[nH]n3)c2)sc1-c1nc(-c2cccc(NC(=O)c3cccc(Cl)c3)c2)no1 [D(63), N-[3(5-{4-Amino-2-[3-(2H-tetrazol-5-yl)-phenylamino]-thiazol-5-yl]-[1,2,4]oxadiazol-3-yl)-phenyl]-3-chloro-benzamide] | > 10000 nM |
| 0.69 nM |  | COc1cc(Nc2nc(N)c(-c3nc(-c4cccc(NC(=O)c5cccc(C#N)c5)c4)no3)s2)cc(OC)c1OC [D(68)] | > 100 nM |
| 2.7 nM |  | COc1cc(Nc2nc(N)c(-c3nc(-c4cccc(NC(=O)c5ccc(CN6CCOCC6)cc5)c4)no3)s2)cc(OC)c1OC [D(76)] | > 1000 nM |
| 2.2 nM |  | Cc1cccc(C(=O)Nc2cccc(-c3noc(-c4sc(NC(=O)Nc5ccccc5)nc4N)n3)c2)c1 [F(12), N-(3-{5-[4-Amino-2-(3-phenyl-ureido)-thiazol-5-yl]-[1,2,4]oxadiazol-3-yl}-phenyl)-3-methyl-benzamide] | > 300 nM |
| 0.36 nM |  | Cc1cccc(C(=O)Nc2cccc(-c3noc(-c4sc(NC(=O)NCc5ccccc5)nc4N)n3)c2)c1 [F(14), N-(3-{5-[4-Amino-2-(3-benzyl-ureido)-thiazol-5-yl]-[1,2,4]oxadiazol-3-yl}-phenyl)-3-methyl-benzamide] | 150 nM |
| 0.16 nM |  | COc1cccc(C(=O)Nc2cc(-c3noc(-c4sc(NC(=O)NCC(C)C)nc4N)n3)c(F)cc2F)c1 [O(7), N-(5-{5-[4-Amino-2-(3-isobutyl-ureido)-thiazol-5-yl]-[1,2,4]oxadiazol-3-yl}-2,4-difluoro-phenyl)-3-methoxy-benzamide] | 5.2 nM |
| 0.42 nM |  | COc1cccc(C(=O)Nc2cc(-c3noc(-c4sc(NC(=O)NCc5cccnc5)nc4N)n3)c(F)cc2F)c1 [O(9), N-(5-{5-[4-Amino-2-(3-pyridin-3-ylmethyl-ureido)-thiazol-5-yl]-[1,2,4]oxadiazol-3-yl}-2,4-difluoro-phenyl)-3-methoxy-benzamide] | 4.3 nM |
| 94 nM |  | COc1cccc(C(=O)Nc2cc(-c3noc(-c4sc(NC(=O)NCCO)nc4N)n3)c(F)cc2F)c1 [O(10), N-[5-(5-{4-Amino-2-[3-(2-hydroxy-ethyl)-ureido]-thiazol-5-yl}-[1,2,4]oxadiazol-3-yl)-2,4-difluoro-phenyl]-3-methoxy-benzamide] | 6.7 nM |
| 0.45 nM |  | COc1cccc(C(=O)Nc2cc(-c3noc(-c4sc(NC(=O)N[C@H]5CC[C@H](O)CC5)nc4N)n3)c(F)cc2F)c1 [O(11), N-[5-(5-{4-Amino-2-[3-(trans-4-hydroxy-cyclohexyl)-ureido]-thiazol-5-yl}-[1,2,4]oxadiazol-3-yl)-2,4-difluoro-phenyl]-3-methoxy-benzamide] | 14 nM |
| 1.4 nM |  | COc1cccc(C(=O)Nc2cc(-c3csc(-c4sc(NC(=O)NCCN5CCOCC5)nc4N)n3)c(F)cc2F)c1 [O(26), N-(5-{4′-Amino-2′-[3-(2-morpholin-4-yl-ethyl)-ureido]-[2,5′]bithiazolyl-4-yl}-2,4-difluoro-phenyl)-3-methoxy-benzamide] |  |
| 1.7 nM |  | COc1cccc(C(=O)Nc2cc(-c3csc(-c4sc(NC(=O)NCCN5CCCC5)nc4N)n3)c(F)cc2F)c1 [O(27), N-(5-{4′-Amino-2′-[3-(2-pyrrolidin-1-yl-ethyl)-ureido]-[2,5′]bithiazolyl-4-yl}-2,4-difluoro-phenyl)-3-methoxy-benzamide] |  |
| 0.29 nM |  | COc1cccc(C(=O)Nc2cc(-c3csc(-c4sc(NC(=O)NCCOCCO)nc4N)n3)c(F)cc2F)c1 [O(28), N-[5-(4′-Amino-2′-{3-[2-(2-hydroxy-ethoxy)-ethyl]-ureido}-[2,5′]bithiazolyl-4-yl)-2,4-difluoro-phenyl]-3-methoxy-benzamide] |  |
|  | 39% | COc1cccc(C(=O)Nc2cc(-c3csc(-c4sc(NC(=O)NCCc5ccncc5)nc4N)n3)c(F)cc2F)c1 [O(30), N-(5-{4′-Amino-2′-[3-(2-pyridin-4-yl-ethyl)-ureido]-[2,5′]bithiazolyl-4-yl}-2,4-difluoro-phenyl)-3-methoxy-benzamide] |  |
| 0.23 nM |  | CNC(=O)Nc1nc(N)c(-c2nc(-c3cccc(NC(=O)c4cccc(OC)c4)c3)c(C)s2)s1 [O(31), N-{3-[4′-Amino-5-methyl-2′-(3-methyl-ureido)-[2,5′]bithiazolyl-4-yl]-phenyl}-3-methoxy-benzamide] |  |
